# Reference: patent US10526316B2, “Quinoxaline and pyridopyrazine derivatives as PI3Kβ inhibitors” (Janssen Pharmaceutica NV, priority 2015, dated 2020)
# pIC50, pKd: −log10 of the molar value. Where two headings read alike, the source gives them in different places.
# Experiments:
# [1] = tested on: Akt phosphorylated at Ser473 in PC-3 cells; experiment: Cellular assay: phosphorylation of Akt at Ser473 in PC-3 cells (MSD ELISA); assay type: cell-based; settings: PC-3 cells, 60 min compound incubation, MSD ELISA, read-out: IC50 pAkt_S473
# Procedure, shortened: (§1)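 Phospho-Akt in whole-cell lysates is quantified by electrochemiluminescent immunoassay using phospho-site capture and total-Akt detection antibodies.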
# PI3Kδ = target: T1, PI3Kδ (Homo sapiens, UniProt O00329); experiment: Enzyme binding assay (KINOMEscan, DiscoveRx); settings: PIK3Cδ_h
# T1 construct: purchased DiscoveRx Corporation, San Diego (contract service, KINOMEscan)
# T1 sequence (O00329 1-1044): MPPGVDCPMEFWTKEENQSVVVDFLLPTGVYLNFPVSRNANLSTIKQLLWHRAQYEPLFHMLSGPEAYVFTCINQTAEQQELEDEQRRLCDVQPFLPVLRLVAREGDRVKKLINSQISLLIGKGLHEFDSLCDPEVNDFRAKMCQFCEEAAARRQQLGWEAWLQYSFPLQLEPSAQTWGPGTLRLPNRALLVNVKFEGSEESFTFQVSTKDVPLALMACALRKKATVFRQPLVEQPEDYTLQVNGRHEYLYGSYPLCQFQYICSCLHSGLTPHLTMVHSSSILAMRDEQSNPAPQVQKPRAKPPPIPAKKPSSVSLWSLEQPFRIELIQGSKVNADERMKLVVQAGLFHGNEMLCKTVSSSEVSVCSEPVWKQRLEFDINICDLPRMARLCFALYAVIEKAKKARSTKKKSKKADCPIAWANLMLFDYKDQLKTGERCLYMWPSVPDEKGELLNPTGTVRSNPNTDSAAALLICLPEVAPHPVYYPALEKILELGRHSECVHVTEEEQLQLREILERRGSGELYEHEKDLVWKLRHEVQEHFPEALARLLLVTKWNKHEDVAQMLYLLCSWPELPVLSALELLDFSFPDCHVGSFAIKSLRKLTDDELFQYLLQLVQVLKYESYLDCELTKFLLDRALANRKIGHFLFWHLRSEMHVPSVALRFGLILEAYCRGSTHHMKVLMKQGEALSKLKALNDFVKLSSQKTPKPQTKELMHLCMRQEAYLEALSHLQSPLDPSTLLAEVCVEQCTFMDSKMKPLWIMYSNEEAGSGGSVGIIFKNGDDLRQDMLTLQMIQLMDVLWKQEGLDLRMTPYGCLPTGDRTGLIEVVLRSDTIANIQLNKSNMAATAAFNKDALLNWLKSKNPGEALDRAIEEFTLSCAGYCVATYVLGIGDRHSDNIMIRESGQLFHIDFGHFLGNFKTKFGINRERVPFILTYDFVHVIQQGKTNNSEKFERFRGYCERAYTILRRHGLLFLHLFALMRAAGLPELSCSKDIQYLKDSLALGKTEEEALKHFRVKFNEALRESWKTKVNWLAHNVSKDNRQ
# Procedure, shortened: (§2)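 Uses KINOMEscan technology to determine binding affinity toward the kinase enzymes.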
# PI3Kβ = target: T2, PI3Kβ (Homo sapiens, UniProt P42338); experiment: Enzyme binding assay (KINOMEscan, DiscoveRx); settings: PIK3Cβ_h, read-out: Kd PIK3Cβ_h
# T2 construct: purchased DiscoveRx Corporation, San Diego (contract service, KINOMEscan)
# Procedure, shortened: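 Using the KINOMEscan format, the enzyme binding affinity of each compound was determined. Each value is the inhibitor binding constant, Kd (nM).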
# [2] = tested on: Akt phosphorylated at Thr308 in PC-3 cells; experiment: Cellular assay: phosphorylation of Akt at Thr308 in PC-3 cells (MSD ELISA); assay type: cell-based; settings: PC-3 cells, 60 min compound incubation, MSD ELISA, read-out: IC50 pAkt_Thr308
# Procedure, shortened: as §1
# kinase enzymes [3] = target: T3, kinase enzymes (Homo sapiens, UniProt P48736); experiment: Enzyme binding assay (KINOMEscan, DiscoveRx), further kinases of Table A; settings: PIK3Cγ_h
# T3 construct: purchased DiscoveRx Corporation, San Diego (contract service, KINOMEscan)
# Procedure, shortened: as §2
# kinase enzymes [4] = target: T4, kinase enzymes (Homo sapiens, UniProt P42336); experiment: as above; settings: PIK3Cα_h
# T4 construct: purchased DiscoveRx Corporation, San Diego (contract service, KINOMEscan)
# Procedure, shortened: as §2
# kinase enzymes [5] = target: T5, kinase enzymes (Homo sapiens, UniProt P42345); experiment: as above; settings: MTOR_h
# T5 construct: purchased DiscoveRx Corporation, San Diego (contract service, KINOMEscan)
# Procedure, shortened: as §2
# T4 sequence (P42336 whole entry): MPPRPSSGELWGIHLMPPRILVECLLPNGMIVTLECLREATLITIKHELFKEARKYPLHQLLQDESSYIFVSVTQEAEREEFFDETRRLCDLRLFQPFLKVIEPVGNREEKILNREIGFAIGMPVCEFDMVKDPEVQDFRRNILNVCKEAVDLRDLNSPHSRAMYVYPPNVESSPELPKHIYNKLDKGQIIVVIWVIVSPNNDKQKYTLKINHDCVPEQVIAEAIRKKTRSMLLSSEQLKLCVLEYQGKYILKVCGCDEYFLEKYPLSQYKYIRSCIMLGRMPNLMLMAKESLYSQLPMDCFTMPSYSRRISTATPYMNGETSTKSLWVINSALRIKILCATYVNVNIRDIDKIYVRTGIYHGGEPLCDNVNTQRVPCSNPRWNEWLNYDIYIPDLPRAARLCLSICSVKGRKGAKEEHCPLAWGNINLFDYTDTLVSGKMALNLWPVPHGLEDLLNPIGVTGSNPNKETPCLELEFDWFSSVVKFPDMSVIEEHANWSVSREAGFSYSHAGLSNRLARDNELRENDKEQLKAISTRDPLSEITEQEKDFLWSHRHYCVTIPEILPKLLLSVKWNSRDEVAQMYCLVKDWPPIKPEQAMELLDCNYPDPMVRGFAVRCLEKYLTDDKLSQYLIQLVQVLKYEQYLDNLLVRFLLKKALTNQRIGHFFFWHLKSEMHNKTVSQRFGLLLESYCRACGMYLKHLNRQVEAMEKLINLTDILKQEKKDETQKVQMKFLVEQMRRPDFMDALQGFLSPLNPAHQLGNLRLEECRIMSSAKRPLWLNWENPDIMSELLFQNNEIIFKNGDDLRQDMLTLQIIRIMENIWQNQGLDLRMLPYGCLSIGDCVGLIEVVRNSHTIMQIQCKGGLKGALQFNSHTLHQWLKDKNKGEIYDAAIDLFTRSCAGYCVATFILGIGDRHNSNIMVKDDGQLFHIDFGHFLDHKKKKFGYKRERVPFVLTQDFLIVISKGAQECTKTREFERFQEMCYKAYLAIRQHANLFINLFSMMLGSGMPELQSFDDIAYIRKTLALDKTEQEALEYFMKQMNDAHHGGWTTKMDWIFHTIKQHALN
# T3 sequence (P48736 whole entry): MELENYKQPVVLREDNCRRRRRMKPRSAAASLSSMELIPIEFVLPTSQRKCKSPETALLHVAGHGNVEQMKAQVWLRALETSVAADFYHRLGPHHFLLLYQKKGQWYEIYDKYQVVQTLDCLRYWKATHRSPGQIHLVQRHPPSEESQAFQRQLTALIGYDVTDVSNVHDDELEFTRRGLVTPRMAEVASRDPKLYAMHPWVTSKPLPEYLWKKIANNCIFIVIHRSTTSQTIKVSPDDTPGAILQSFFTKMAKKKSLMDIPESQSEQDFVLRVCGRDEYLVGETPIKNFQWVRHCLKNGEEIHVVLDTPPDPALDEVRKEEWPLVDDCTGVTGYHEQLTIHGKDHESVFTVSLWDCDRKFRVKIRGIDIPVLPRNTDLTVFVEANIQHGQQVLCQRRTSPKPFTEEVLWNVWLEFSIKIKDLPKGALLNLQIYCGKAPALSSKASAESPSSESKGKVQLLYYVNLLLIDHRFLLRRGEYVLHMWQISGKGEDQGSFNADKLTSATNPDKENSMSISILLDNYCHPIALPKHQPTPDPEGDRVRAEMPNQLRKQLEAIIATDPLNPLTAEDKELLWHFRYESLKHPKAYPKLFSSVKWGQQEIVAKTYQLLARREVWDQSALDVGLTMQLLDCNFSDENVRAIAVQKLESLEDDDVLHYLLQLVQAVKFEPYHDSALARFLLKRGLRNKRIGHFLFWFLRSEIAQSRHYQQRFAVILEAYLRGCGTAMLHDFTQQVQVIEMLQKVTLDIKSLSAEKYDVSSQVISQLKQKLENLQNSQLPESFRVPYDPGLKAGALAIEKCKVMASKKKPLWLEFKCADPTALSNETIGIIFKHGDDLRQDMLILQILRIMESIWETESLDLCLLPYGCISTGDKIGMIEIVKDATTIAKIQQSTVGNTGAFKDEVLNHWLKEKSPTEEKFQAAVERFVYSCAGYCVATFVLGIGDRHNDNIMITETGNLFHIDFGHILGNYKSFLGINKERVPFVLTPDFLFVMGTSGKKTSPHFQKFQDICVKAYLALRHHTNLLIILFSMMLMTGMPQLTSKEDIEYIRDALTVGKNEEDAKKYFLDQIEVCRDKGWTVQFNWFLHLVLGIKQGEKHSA
# T2 sequence (P42338 whole entry): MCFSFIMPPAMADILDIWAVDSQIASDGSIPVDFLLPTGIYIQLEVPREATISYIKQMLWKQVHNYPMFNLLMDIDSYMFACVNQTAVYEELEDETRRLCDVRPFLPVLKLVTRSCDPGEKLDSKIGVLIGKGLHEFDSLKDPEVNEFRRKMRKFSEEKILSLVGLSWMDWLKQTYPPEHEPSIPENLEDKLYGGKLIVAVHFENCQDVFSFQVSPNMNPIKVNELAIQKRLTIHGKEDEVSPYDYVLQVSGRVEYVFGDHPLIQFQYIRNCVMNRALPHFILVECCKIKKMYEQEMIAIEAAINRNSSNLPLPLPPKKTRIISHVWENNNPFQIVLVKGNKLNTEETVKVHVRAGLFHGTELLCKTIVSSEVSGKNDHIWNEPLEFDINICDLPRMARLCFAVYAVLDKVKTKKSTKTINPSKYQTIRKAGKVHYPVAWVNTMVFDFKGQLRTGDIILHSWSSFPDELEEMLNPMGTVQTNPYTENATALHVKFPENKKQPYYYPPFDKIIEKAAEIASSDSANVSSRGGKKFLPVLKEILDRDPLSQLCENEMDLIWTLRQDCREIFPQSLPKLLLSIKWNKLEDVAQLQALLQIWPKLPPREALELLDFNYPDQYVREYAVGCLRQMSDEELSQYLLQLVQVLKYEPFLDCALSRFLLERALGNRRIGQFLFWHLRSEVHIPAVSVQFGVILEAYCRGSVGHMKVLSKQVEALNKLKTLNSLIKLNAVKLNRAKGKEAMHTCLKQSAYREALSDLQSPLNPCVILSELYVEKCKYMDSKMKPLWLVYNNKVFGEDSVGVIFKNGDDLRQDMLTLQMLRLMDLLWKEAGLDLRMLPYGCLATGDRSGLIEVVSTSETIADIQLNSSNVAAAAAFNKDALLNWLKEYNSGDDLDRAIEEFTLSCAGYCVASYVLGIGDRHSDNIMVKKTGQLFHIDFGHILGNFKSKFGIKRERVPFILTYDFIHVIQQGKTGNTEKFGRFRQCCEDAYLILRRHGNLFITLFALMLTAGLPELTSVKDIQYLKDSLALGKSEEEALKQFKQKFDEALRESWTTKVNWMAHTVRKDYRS
Compound,pIC50 [1],pKd (PI3Kδ),pKd (PI3Kβ),pIC50 [2],melting point,pKd (kinase enzymes [3]),pKd (kinase enzymes [4]),pKd (kinase enzymes [5]),"pIC50 ([1]; Homo sapiens, PC-3, 1 h)","pIC50 ([2]; Homo sapiens, PC-3, 1 h)"
"CC(C)NCCNC(=O)c1cc(C(C)Nc2cc(F)cc(F)c2)c2nc(N3CCOCC3)cnc2c1 (single isomer, unassigned) [Compound 211]",7.44,6.72,9.00,7.66,206 °C,5.44,5.47,4.69,,
O=C(O)c1cc(C2CCCN2c2cc(F)cc(F)c2)c2nc(N3CCOCC3)cnc2c1 (stereo not drawn) [Compound 62],,7.29,9.00,,> 260 °C,6.63,7.60,5.69,7.28,7.49
O=C(c1cc(C2CCCN2c2cc(F)cc(F)c2)c2nc(N3CCOCC3)cnc2c1)N1CCC[C@H]1CO (mixture of isomers) [Compound 64],,7.24,9.00,,80 °C,5.89,6.65,4.82,7.89,8.22
CC(Nc1cccc(C#N)c1)c1cc(C(=O)N(C)C)cc2ncc(N3CCOCC3)nc12 (stereo not drawn) [Compound 155],,6.12,8.22,,186 °C,5.18,5.67,< 4.52,6.36,6.47
CCN1CCN(C(=O)c2cc(C(C)Nc3cc(F)cc(F)c3)c3nc(N4CCOCC4)cnc3c2)CC1 (stereo not drawn) [Compound 143],,6.41,8.70,,80 °C,5.02,5.55,< 4.52,6.99,7.52
CC(C)NCc1cc(F)cc(N2CCCC2c2cc(C(=O)N(C)C)cc3ncc(N4CCOCC4)nc23)c1 (stereo not drawn) [Compound 49],,6.03,7.80,,80 °C,5.12,5.66,< 4.52,< 6.29,6.33
"O=C(O)c1cc(C2CCCN2c2cc(F)cc(F)c2)c2nc(N3CCOCC3)cnc2c1 (single isomer, unassigned) [Compound 251]",,7.64,9.52,,299 °C,7.19,8.10,6.17,7.28,7.64
COc1cccc(N2CCCC2c2cc(C(=O)N(C)C)cc3ncc(N4CCOCC4)nc23)c1 (stereo not drawn) [Compound 41],,6.85,9.00,,80 °C,5.86,6.41,< 4.52,7.51,7.66
"OCCCNCc1cc(C2CCCN2c2cc(F)cc(F)c2)c2nc(N3CCOCC3)cnc2c1 (single isomer, unassigned) [Compound 102]",,7.51,9.70,,80 °C,6.40,6.61,< 4.52,7.66,7.64
"CC(C)NCCNC(=O)c1cc(C(C)Nc2cc(F)cc(F)c2)c2nc(N3CCOCC3)cnc2c1 (single isomer, unassigned) [Compound 212]",6.40,5.48,7.92,6.48,204 °C,5.29,5.15,4.86,,
CC(C)NCCNC(=O)c1cc(C(C)Nc2cccc(F)c2)c2nc(N3CCOCC3)cnc2c1 (stereo not drawn) [Compound 226],,6.56,9.00,,158 °C,5.25,5.59,4.54,7.70,7.89
CC(c1cc(C(=O)O)cc2ncc(N3CCOCC3)nc12)N(C)c1cccc(F)c1 (stereo not drawn) [Compound 98],,6.02,7.33,,240 °C,6.36,6.32,5.65,< 6.29,< 6.29
"C[C@H](CO)NC(=O)c1cc(C2CCCN2c2cc(F)cc(F)c2)c2nc(N3CCOCC3)cnc2c1 (single isomer, unassigned) [Compound 70]",,6.83,8.70,,80 °C,5.96,6.47,4.72,~7.35,7.64
"CC(Oc1cc(F)cc(F)c1)c1cc(-c2cnc[nH]2)cc2ncc(N3CCOCC3)nc12 (single isomer, unassigned) [Compound 21]",,5.65,7.20,,184 °C,4.80,5.32,4.70,6.29,~6.30
CC(Nc1cc(F)cc(F)c1)c1cc(C(=O)N2CCN(C)CC2)cc2ncc(N3CCOCC3)nc12 (stereo not drawn) [Compound 144],,6.36,8.70,,80 °C,5.25,5.76,< 4.52,7.23,7.55

# The next lines start with the values.
pIC50 [1],pKd (PI3Kδ),pKd (PI3Kβ),pIC50 [2],melting point,pKd (kinase enzymes [3]),pKd (kinase enzymes [4]),pKd (kinase enzymes [5]),"pIC50 ([1]; Homo sapiens, PC-3, 1 h)","pIC50 ([2]; Homo sapiens, PC-3, 1 h)",Compound
6.94,5.97,7.96,7.17,89.8 °C,5.14,5.82,4.59,,,"CC(Nc1cccc(F)c1)c1cc(C(=O)NC[C@@H](C)O)cc2ncc(N3CCOCC3)nc12 (single isomer, unassigned) [Compound 338a]"
,5.90,7.48,,90 °C,4.75,5.46,< 4.52,< 6.29,< 6.29,"CN(C)C(=O)c1cc(N2CCCC2c2cc(F)cc(F)c2)c2nc(N3CCOCC3)cnc2c1 (single isomer, unassigned) [Compound 395a]"
,6.80,9.00,,120 °C,5.09,6.03,< 4.52,7.52,7.85,CC1CN(C(=O)c2cc(C(C)Nc3ccc(F)c(F)c3)c3nc(N4CCOCC4)cnc3c2)CC(C)N1 (stereo not drawn) [Compound 357b]
< 6.29,4.76,5.50,< 6.29,54 °C,< 4.52,< 4.52,< 4.52,,,"CC(Oc1cc(F)cc(F)c1)c1cc(C(=O)N(C)C)cc2ncc(C3=CCOCC3)nc12 (single isomer, unassigned) [Compound 403b]"
~6.96,6.79,9.00,~7.07,90 °C,5.26,5.56,< 4.52,,,"CNCCOCCN(C)C(=O)c1cc(C(C)Nc2cc(F)c(F)c(F)c2)c2nc(N3CCOCC3)cnc2c1 (single isomer, unassigned) [Compound 315b]"
8.10,7.41,10.00,8.40,80 °C,5.98,6.43,4.64,,,"CNCCNC(=O)c1cc(C(C)Nc2cc(F)cc(F)c2)c2nc(N3CCOCC3)cnc2c1 (single isomer, unassigned) [Compound 406a]"
